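Method: 48-hour compound exposure of cells in 96-well plates, five concentrations, linear interpolation of endpoints. GI50 is the concentration that inhibits growth by half.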 The source made the active and inactive calls. No stated cut-off is given here; in the data, active = GI50 up to about 1.1 µM and inactive = higher.
Legend:
Test in all cases: DTP human tumour cell line panel, 48 h
[1] = system: 786-0
[2] = system: A498
[3] = system: A549
[4] = system: ACHN
[5] = system: BT-549
[6] = system: CAKI-1
[7] = system: CCRF-CEM
[8] = system: COLO 205
[9] = system: DU-145
[10] = system: EKVX
[11] = system: HCC 2998
[12] = system: HCT-116
[13] = system: HCT-15
[14] = system: HOP-62
[15] = system: HT-29
[16] = system: Hs-578T
[17] = system: IGROV-1
[18] = system: K562
[19] = system: KM12
[20] = system: LOX IMVI
[21] = system: M14
[22] = system: MCF7
[23] = system: MDA-MB-231
[24] = system: MDA-MB-435
[25] = system: MDA-N
[26] = system: Malme-3M
[27] = system: NCI-H226
[28] = system: NCI-H23
[29] = system: NCI-H460
[30] = system: NCI-H522
[31] = system: NCI/ADR-RES
[32] = system: OVCAR-3
[33] = system: OVCAR-4
[34] = system: OVCAR-5
[35] = system: OVCAR-8
[36] = system: PC-3
[37] = system: RPMI-8226
[38] = system: RXF 393
[39] = system: SF-268
[40] = system: SF-295
[41] = system: SF-539
[42] = system: SK-MEL-28
[43] = system: SK-MEL-2
[44] = system: SK-MEL-5
[45] = system: SK-OV-3
[46] = system: SN12C
[47] = system: SNB-19
[48] = system: SNB-75
[49] = system: SW-620
[50] = system: TK-10
[51] = system: U-251
[52] = system: UACC-257
[53] = system: UACC-62
[54] = system: UO-31
[55] = system: HL-60
[56] = system: HOP-92
[57] = system: MOLT-4
[58] = system: SR

## CSc1nc(Cl)c2c(n1)Sc1nc3cc4c(cc3n1C2O)OCO4 (centres undefined)
[1]
  GI50: 0.321 µM (active)
[2]
  GI50: 3.44 µM (inactive)
[3]
  GI50: 0.617 µM (active)
[4]
  GI50: 0.946 µM (active)
[5]
  GI50: 0.452 µM (active)
[6]
  GI50: 2.95 µM (inactive)
[7]
  GI50: 0.269 µM (active)
[8]
  GI50: 0.247 µM (active)
[9]
  GI50: 0.318 µM (active)
[10]
  GI50: 5.75 µM (inactive)
[11]
  GI50: 1.66 µM (inactive)
[12]
  GI50: 0.0863 µM (active)
[13]
  GI50: 0.31 µM
[14]
  GI50: 0.701 µM (active)
[15]
  GI50: 0.254 µM (active)
[16]
  GI50: 1.05 µM (active)
[17]
  GI50: 0.392 µM (active)
[18]
  GI50: 0.29 µM (active)
[19]
  GI50: 0.194 µM (active)
[20]
  GI50: 0.206 µM (active)
[21]
  GI50: 0.333 µM (active)
[22]
  GI50: 0.338 µM (active)
[23]
  GI50: 0.391 µM (active)
[24]
  GI50: 0.232 µM (active)
[25]
  GI50: 0.237 µM (active)
[26]
  GI50: 0.516 µM (active)
[27]
  GI50: 1.1 µM (active)
[28]
  GI50: 0.891 µM (active)
[29]
  GI50: 0.364 µM (active)
[30]
  GI50: 0.26 µM (active)
[31]
  GI50: 0.385 µM (active)
[32]
  GI50: 0.982 µM (active)
[33]
  GI50: > 100 µM (inactive)
[34]
  GI50: 0.92 µM (active)
[35]
  GI50: 0.575 µM (active)
[36]
  GI50: 0.306 µM (active)
[37]
  GI50: 0.385 µM (active)
[38]
  GI50: 1.96 µM (inactive)
[39]
  GI50: 0.637 µM (active)
[40]
  GI50: 0.818 µM (active)
[41]
  GI50: 0.126 µM (active)
[42]
  GI50: 0.895 µM (active)
[43]
  GI50: 0.726 µM (active)
[44]
  GI50: 0.526 µM (active)
[45]
  GI50: 1.72 µM (inactive)
[46]
  GI50: 0.578 µM (active)
[47]
  GI50: 1.57 µM (inactive)
[48]
  GI50: 3.75 µM (inactive)
[49]
  GI50: 0.33 µM (active)
[50]
  GI50: 1.65 µM (inactive)
[51]
  GI50: 0.791 µM (active)
[52]
  GI50: > 58.7 µM (inactive)
[53]
  GI50: 0.43 µM (active)
[54]
  GI50: 0.46 µM (active)

## CCOC(=O)c1ccc(/N=C2\S/C(=C\C(=S)Nc3ccccc3)N(c3ccccc3)\C2=N/c2ccc(C(=O)OCC)cc2)cc1
[1]
  GI50: 82 µM (inactive)
[3]
  GI50: > 100 µM (inactive)
[5]
  GI50: 62.7 µM (inactive)
[7]
  GI50: > 100 µM (inactive)
[8]
  GI50: > 100 µM (inactive)
[10]
  GI50: > 100 µM (inactive)
[11]
  GI50: > 100 µM (inactive)
[12]
  GI50: 27.2 µM (inactive)
[13]
  GI50: > 100 µM
[55]
  GI50: > 100 µM (inactive)
[14]
  GI50: > 100 µM (inactive)
[56]
  GI50: 22.8 µM (inactive)
[15]
  GI50: > 100 µM (inactive)
[16]
  GI50: 62.4 µM (inactive)
[17]
  GI50: > 100 µM (inactive)
[18]
  GI50: > 100 µM (inactive)
[19]
  GI50: > 100 µM (inactive)
[21]
  GI50: 34.6 µM (inactive)
[22]
  GI50: > 100 µM (inactive)
[23]
  GI50: > 100 µM (inactive)
[57]
  GI50: > 100 µM (inactive)
[26]
  GI50: 21.6 µM (inactive)
[27]
  GI50: > 100 µM (inactive)
[28]
  GI50: > 100 µM (inactive)
[35]
  GI50: > 100 µM (inactive)
[36]
  GI50: > 100 µM (inactive)
[37]
  GI50: > 100 µM (inactive)
[38]
  GI50: 81.5 µM (inactive)
[42]
  GI50: 95.5 µM (inactive)
[43]
  GI50: > 100 µM (inactive)
[44]
  GI50: 40.7 µM (inactive)
[46]
  GI50: > 100 µM (inactive)
[47]
  GI50: > 100 µM (inactive)
[48]
  GI50: 34.5 µM (inactive)
[58]
  GI50: > 100 µM (inactive)
[49]
  GI50: > 100 µM (inactive)
[50]
  GI50: > 100 µM (inactive)
[52]
  GI50: 94.2 µM (inactive)
[53]
  GI50: > 100 µM (inactive)
[54]
  GI50: > 100 µM (inactive)

## COC(=O)/C(=N\N)C(C(=O)C(=O)Nc1cccc([N+](=O)[O-])c1)c1nc2ccc(C(=O)c3ccccc3)cc2nc1O (centres undefined)
[1]
  GI50: > 100 µM (inactive)
[3]
  GI50: 61.4 µM (inactive)
[4]
  GI50: > 100 µM (inactive)
[5]
  GI50: > 100 µM (inactive)
[6]
  GI50: > 100 µM (inactive)
[7]
  GI50: 22.3 µM (inactive)
[8]
  GI50: > 100 µM (inactive)
[9]
  GI50: > 100 µM (inactive)
[10]
  GI50: > 100 µM (inactive)
[11]
  GI50: > 100 µM (inactive)
[12]
  GI50: > 100 µM (inactive)
[13]
  GI50: > 100 µM
[55]
  GI50: 32.5 µM (inactive)
[14]
  GI50: 73.1 µM (inactive)
[56]
  GI50: 35.7 µM (inactive)
[15]
  GI50: > 100 µM (inactive)
[16]
  GI50: > 100 µM (inactive)
[17]
  GI50: > 100 µM (inactive)
[19]
  GI50: > 100 µM (inactive)
[20]
  GI50: > 100 µM (inactive)
[21]
  GI50: > 100 µM (inactive)
[22]
  GI50: 54.2 µM (inactive)
[23]
  GI50: > 100 µM (inactive)
[24]
  GI50: > 100 µM (inactive)
[25]
  GI50: > 100 µM (inactive)
[57]
  GI50: 15 µM (inactive)
[27]
  GI50: > 100 µM (inactive)
[28]
  GI50: > 100 µM (inactive)
[29]
  GI50: > 100 µM (inactive)
[30]
  GI50: 72.1 µM (inactive)
[31]
  GI50: > 100 µM (inactive)
[32]
  GI50: > 100 µM (inactive)
[33]
  GI50: 40.2 µM (inactive)
[34]
  GI50: > 100 µM (inactive)
[35]
  GI50: > 100 µM (inactive)
[36]
  GI50: 84.5 µM (inactive)
[38]
  GI50: 16.9 µM (inactive)
[39]
  GI50: > 100 µM (inactive)
[40]
  GI50: 96.4 µM (inactive)
[41]
  GI50: > 100 µM (inactive)
[42]
  GI50: > 100 µM (inactive)
[43]
  GI50: > 100 µM (inactive)
[44]
  GI50: 71 µM (inactive)
[45]
  GI50: 93.8 µM (inactive)
[46]
  GI50: > 100 µM (inactive)
[47]
  GI50: > 100 µM (inactive)
[48]
  GI50: > 100 µM (inactive)
[49]
  GI50: > 100 µM (inactive)
[50]
  GI50: 39.9 µM (inactive)
[51]
  GI50: > 100 µM (inactive)
[52]
  GI50: > 100 µM (inactive)
[53]
  GI50: 96.2 µM (inactive)
[54]
  GI50: 37.5 µM (inactive)

## Cc1cc(NS(=O)(=O)c2ccc(/N=N/c3c(O)c(C(=O)O)cc4ccccc34)cc2)nc(C)n1
[1]
  GI50: > 100 µM (inactive)
[3]
  GI50: > 100 µM (inactive)
[4]
  GI50: > 100 µM (inactive)
[5]
  GI50: > 100 µM (inactive)
[6]
  GI50: > 100 µM (inactive)
[7]
  GI50: > 100 µM (inactive)
[8]
  GI50: > 100 µM (inactive)
[10]
  GI50: > 100 µM (inactive)
[11]
  GI50: > 100 µM (inactive)
[12]
  GI50: > 100 µM (inactive)
[13]
  GI50: > 100 µM
[55]
  GI50: > 100 µM (inactive)
[14]
  GI50: > 100 µM (inactive)
[56]
  GI50: > 100 µM (inactive)
[15]
  GI50: > 100 µM (inactive)
[16]
  GI50: > 100 µM (inactive)
[17]
  GI50: > 100 µM (inactive)
[18]
  GI50: > 100 µM (inactive)
[19]
  GI50: > 100 µM (inactive)
[21]
  GI50: > 100 µM (inactive)
[22]
  GI50: > 100 µM (inactive)
[23]
  GI50: > 100 µM (inactive)
[24]
  GI50: > 100 µM (inactive)
[57]
  GI50: > 100 µM (inactive)
[26]
  GI50: > 100 µM (inactive)
[27]
  GI50: > 100 µM (inactive)
[29]
  GI50: > 100 µM (inactive)
[30]
  GI50: > 100 µM (inactive)
[31]
  GI50: > 100 µM (inactive)
[32]
  GI50: > 100 µM (inactive)
[33]
  GI50: > 100 µM (inactive)
[34]
  GI50: > 100 µM (inactive)
[35]
  GI50: > 100 µM (inactive)
[36]
  GI50: > 100 µM (inactive)
[37]
  GI50: > 100 µM (inactive)
[38]
  GI50: > 100 µM (inactive)
[39]
  GI50: > 100 µM (inactive)
[40]
  GI50: > 100 µM (inactive)
[41]
  GI50: > 100 µM (inactive)
[42]
  GI50: > 100 µM (inactive)
[43]
  GI50: > 100 µM (inactive)
[44]
  GI50: > 100 µM (inactive)
[45]
  GI50: > 100 µM (inactive)
[47]
  GI50: > 100 µM (inactive)
[48]
  GI50: > 100 µM (inactive)
[58]
  GI50: > 100 µM (inactive)
[49]
  GI50: > 100 µM (inactive)
[50]
  GI50: > 100 µM (inactive)
[51]
  GI50: > 100 µM (inactive)
[52]
  GI50: > 100 µM (inactive)
[53]
  GI50: > 100 µM (inactive)
[54]
  GI50: > 100 µM (inactive)
